Entries after “also recorded” stand apart in the source; their conditions may differ.
Experiments:
NF-κB signaling pathway = assay: Reporter gene assay THP1-Lucia NF-κB; format: cell-based; details: THP1-Lucia NF-κB cells stimulated with LPS; FIG. 11
Method: (§1) In the present test example, THP1-Lucia NF-κB, HEK-Lucia RIG-1, HEK-Blue-IL-4/IL-13, and HEK-Blue IL-10 cell lines were purchased from InVivoGen, and evaluated for inhibitory activity on immune cell signaling, and the analysis was performed according to the manufacturer's analysis method. Specifically, the four types of cell lines were treated with each of test substances, which are the piperlongumine-based compounds 1 to 19, and then treated with each of promoter stimulants (LPS, 3p-hpRNA, interleukin-4, and interleukin-10). The response was induced according to the guidelines, and then the activity inhibitory ability was analyzed.

RIG1 = assay: Reporter gene assay HEK-Lucia RIG-1; format: cell-based; details: HEK-Lucia RIG-1 cells, stimulant 3p-hpRNA; FIG. 12
Method: as §1

STAT3 signaling = assay: Reporter gene assay HEK-Blue IL-10; format: cell-based; details: HEK-Blue IL-10 cells, stimulant interleukin-10; FIG. 13
Method: as §1

STAT6 signaling = assay: Reporter gene assay HEK-Blue-IL-4/IL-13; format: cell-based; details: HEK-Blue-IL-4/IL-13 cells, stimulant interleukin-4; FIG. 14
Method: as §1
STAT6 is a transcription factor that plays a role in modulating the expression of various cytokines, hormones, and growth factors by signals coming from the outside. IL-4/IL-13 and STAT6 are also important modulator of Th2.

IL-2 gene expression = assay: T cell-dependent cytokine IL-2 gene expression inhibition, splenocytes ex vivo; details: Balb/c mouse splenocytes, CD3 monoclonal antibody stimulation; control cyclosporine (CsA); FIG. 6
IFNγ expression = assay: T cell-dependent cytokine IFNγ gene expression inhibition, splenocytes ex vivo; details: Balb/c mouse splenocytes, CD3 monoclonal antibody stimulation; FIG. 7
IL-4 gene expression = assay: T cell-dependent cytokine IL-4 gene expression inhibition, splenocytes ex vivo; details: Balb/c mouse splenocytes, CD3 monoclonal antibody stimulation; control cyclosporine (CsA); FIG. 8
IL-17a gene expression = assay: T cell-dependent cytokine IL-17a gene expression inhibition, splenocytes ex vivo; details: Balb/c mouse splenocytes, CD3 monoclonal antibody stimulation

Structure (SMILES) | NF-κB activity inhibitory effect (NF-κB signaling pathway) | RIG1 activity inhibitory effect (RIG1) | STAT3 activity inhibitory effect (STAT3 signaling) | STAT6 activity inhibitory effect (STAT6 signaling) | IL-2 gene expression inhibitory activity (IL-2 gene expression) | inhibitory ability on Th1-derived IFNγ expression (IFNγ expression) | IL-4 gene expression inhibitory activity (IL-4 gene expression) | IL-17a gene expression inhibitory activity (IL-17a gene expression; control cyclosporine (CSA), FIG. 10) | IL-17a gene expression inhibitory activity, fold higher compared with Compound 3 (IL-17a gene expression; relative to Compound 3) | IL-17a gene expression inhibitory activity, fold higher compared with Compound 9 (IL-17a gene expression; relative to Compound 9)
COC(=O)c1cc(/C=C/C(=O)N2CCC=CC2=O)ccc1OC [Compound 1, (E)-methyl-2-methoxy-5-(3-oxo-3-(2-oxo-5,6-dihydropyridin-1(2H)-yl)prop-1-en-1-yl)benzoate] | very high NF-κB activity inhibitory ability | very high RIG1 activity inhibitory ability | very high STAT3 activity inhibitory ability | very high STAT6 activity inhibitory ability | IL-2 gene expression inhibitory activity at a significant level equal to or greater than that of cyclosporine; also recorded: effectively inhibit | effectively inhibit | IL-4 gene expression inhibitory activity at a significant level equal to or greater than that of cyclosporine; also recorded: effectively inhibit | excellent IL-17a expression inhibitory activity compared with cyclosporine | at least 6 fold | at least 3 fold
COC(=O)c1cc(/C=C/C(=O)N2CCC=C(Cl)C2=O)ccc1OC [Compound 3, (E)-methyl-5-(3-(3-chloro-2-oxo-5,6-dihydropyridin-1(2H)-yl)-3-oxoprop-1-en-1-yl)-2-methoxybenzoate] | very high NF-κB activity inhibitory ability | very high RIG1 activity inhibitory ability | very high STAT3 activity inhibitory ability | very high STAT6 activity inhibitory ability | IL-2 gene expression inhibitory activity at a significant level equal to or greater than that of cyclosporine; also recorded: effectively inhibit | effectively inhibit | IL-4 gene expression inhibitory activity at a significant level equal to or greater than that of cyclosporine; also recorded: effectively inhibit |  |  | 
COC(=O)c1cc(/C=C/C(=O)N2CCC=C(Br)C2=O)ccc1OC [Compound 9, (E)-methyl-5-(3-(3-bromo-2-oxo-5,6-dihydropyridin-1(2H)-yl)-3-oxoprop-1-en-1-yl)-2-methoxybenzoate] | very high NF-κB activity inhibitory ability | very high RIG1 activity inhibitory ability | very high STAT3 activity inhibitory ability |  | IL-2 gene expression inhibitory activity at a significant level equal to or greater than that of cyclosporine; also recorded: effectively inhibit | effectively inhibit | IL-4 gene expression inhibitory activity at a significant level equal to or greater than that of cyclosporine; also recorded: effectively inhibit |  |  | 
COC(=O)c1cc(/C=C/C(=O)N2CCC=C(Br)C2=O)ccc1O [Compound 10, (E)-methyl-5-(3-(3-bromo-2-oxo-5,6-dihydropyridin-1(2H)-yl)-3-oxoprop-1-en-1-yl)-2-hydroxybenzoate] |  | very high RIG1 activity inhibitory ability | very high STAT3 activity inhibitory ability |  |  |  |  |  |  | 
COC(=O)c1cc(/C=C/C(=O)N2CCC=C(Br)C2=O)ccc1OC(C)=O [Compound 11, (E)-methyl-2-acetoxy-5-(3-(3-bromo-2-oxo-5,6-dihydropyridin-1(2H)-yl)-3-oxoprop-1-en-1-yl)benzoate] |  |  |  |  |  |  | IL-4 gene expression inhibitory activity at a significant level equal to or greater than that of cyclosporine |  |  | 
COC(=O)c1cc(/C=C/C(=O)N2CCC=C(Cl)C2=O)ccc1O [Compound 12, (E)-methyl-5-(3-(3-chloro-2-oxo-5,6-dihydropyridin-1(2H)-yl)-3-oxoprop-1-en-1-yl)-2-hydroxybenzoate] |  |  | very high STAT3 activity inhibitory ability | very high STAT6 activity inhibitory ability |  |  |  |  |  | 
COC(=O)c1cc(/C=C/C(=O)N2CCC=C(Cl)C2=O)ccc1OC(C)=O [Compound 13, (E)-methyl-2-acetoxy-5-(3-(3-chloro-2-oxo-5,6-dihydropyridin-1(2H)-yl)-3-oxoprop-1-en-1-yl)benzoate] |  |  | very high STAT3 activity inhibitory ability | very high STAT6 activity inhibitory ability |  |  |  |  |  | 
O=C(/C=C/c1cccc([N+](=O)[O-])c1)N1CCC=C(Cl)C1=O [Compound 16, (E)-3-chloro-1-(3-(3-nitrophenyl)acryloyl)-5,6-dihydropyridin-2(1H)-one] |  |  | very high STAT3 activity inhibitory ability | very high STAT6 activity inhibitory ability |  |  |  |  |  | 

— US11878971B2, “Piperlongumine-based compound and immuno regulator comprising the same” (HUSCION CO., LTD., priority 2020, dated 2024)
